We go through one compound from patent publication US12687539B2 (priority 2019, dated 2026).

One data set concerns rat. As to conditions: in vivo; cited from earlier work.
In data set [1] the test system is DAS5G11E7 monoclonal antibody. The class given is binding, mouse.

Regarding `CC(=O)OC[C@]12CCC(C)=C[C@H]1O[C@@H]1[C@H](O)[C@@H](OC(C)=O)[C@@]2(C)[C@]12CO2` [DAS, diacetoxyscirpenol], the LDS with rat is on record as 0.75 mg/kg. For the same compound, the Cross reactivity in data set [1] was found to be 100%.
